Marks after values point to notes of the source that are not given here.
What was measured:
hippocampal neurons [1] = experiment: Neurite outgrowth, hippocampal neurons; format: cell-based, rat; details: at 0.3 μg/ml
Experimental: (§1) The cultures were subsequently immunostained for tyrosine hydroxylase. Hippocampal neurons and CGN were plated at a density of 10,000 cells/cm^2 on 8-well permanox chamber slides and incubated for 24 hours in the presence of various concentrations of FGLd. Subsequently the neurons were immunostained for GAP-43. Results from at least five independent experiments for each neuronal culture are shown as percentage ±SEM with the untreated controls set at 100%. *p<0.05, **p<0.01, ***p<0.001 when compared to the controls.
Results from at least four independent experiments are shown as percentage SEM with untreated controls set at 100%. **p<0.01 when compared to the controls.
(§2) Peptide solutions without or with inhibitors of various signal transduction pathways were added to a total volume of 300 μl/cm^2, and the slides were incubated at 37° C. After 24 hours, the neurons were fixed with 4% (v/v) formaldehyde for 20 minutes and thereafter immunostained using primary rabbit antibodies against GAP-43 and Alexa Fluor secondary goat anti-rabbit antibodies. Images of at least 200 neurons for each group in each individual experiment were obtained systematically by using computer assisted fluorescence microscopy as previously described (Rønn et al., 2000 op. cit.). Briefly, a Nikon Diaphot inverted microscope with a Nikon Plan 20× objective (Nikon, Tokyo, Japan) coupled to a video camera (Grundig Electronics, Germany) was used for recordings. The same software package as described above for the dopaminergic neurite outgrowth assay was used to process the recorded images.

[2] = tested on: FGL-induced neurite outgrowth in CGN cultures; experiment: Effect of inhibitors of FGFR, MEK and PI3K on FGL-induced neurite outgrowth in CGN; format: cell-based, rat; details: Rattus norvegicus, 27 μg/ml FGLd, FGLd-treated control = 100%, read-out: FGLd-induced neurite outgrowth in CGN in presence of inhibitor
Experimental: CGN cultures were grown for 24 hours at a density of 10,000 cells/cm^2 on 8-well permanox slides in the presence of the FGL peptide and an inhibitor. PD98059 ([…]) was added at concentrations of 12.5, 25 and 50 μM simultaneously with 10 μg/ml FGLd; LY294002 (▴) was added at concentrations of 3.5, 7 and 10 μM simultaneously with 27 μg/ml FGLd. SU5402 (▪) was added in concentrations of 20, 40 and 80 μM simultaneously with 27 μg/ml FGLd. After the treatment cells were fixed and immunostained for GAP-43. Results from at least four independent experiments are shown as percentage ±SEM, with FGLd-treated control cultures set at 100%. The dashed line indicates the average neurite length in cultures without FGLd-treatment. *p<0.05, **p<0.01 when compared to the FGLd-treated controls.
as §2

[3] = tested on: organotypic hippocampal neuronal slice cultures (OHSC); experiment: OGD, propidium iodide staining of OHSC; format: cell-based, rat; details: control peptide
From the text: In the present study it was investigated the effect of the FGL peptide on synaptic plasticity, neuronal function and vulnerability following oxygen and glucose deprivation (OGD) in organotypic hippocampal neuronal slice cultures (OHSC) from 7-day-old Wistar rats according to method of Stoppini et al. (1991) Neurosci Methods. 37:173-82 and primary cultures of dissociated hippocampal neurons from 1-day-old rats according to method of Maar et al. (1997) J Neurosci Res. 47:163-72. Primary cell cultures were maintained for 11-12 days and OHSC for 12-14 days prior to adding FGLd.
The primary cell cultures and OHSC were exposed to OGD for 10 and 20 minutes. Following OGD, the cultures were again supplied with oxygen and glucose and analysed at 1, 4 or 24 hour time point after introduction of OGD exposure. FGLd (or the control peptide FGLc) was added 24 hr before, immediately, or 1 hr or 24 hr after OGD. When administered prior to OGD, FGLd was removed from the medium when introducing OGD. In some cases, the slice cultures were treated with FGLd only at 4 hr after OGD. In addition, the FGFR inhibitor, SU5402 (25 μM), was added together with FGLd in some of the set-ups.
In hippocampal neuronal cultures, FM 1-43 staining was used to evaluate pre-synaptic function (described above). Cell viability in both primary cell cultures and OHSC was measured using the […] [3-(4,5-dimethylthiazol-2-yl)-2,5-diphenyltetrazolium bromide] assay according to Malich et al, (1997) Toxicology. 124:179-92. In, addition, cell viability in OHSC was measured using propidium iodide (PI) staining according to Laake et al. (1999) Brain Res Brain Res Protoc. 4:173-84.

[4] = tested on: cerebellar granule neurons (CGN); experiment: Survival of CGN induced to undergo apoptosis by low KCl; details: for Neuronal Survival (% of Control): Low K+ (5 mM)
Experimental: Cerebella granular meurons (CGN) (e and f) from postnatal day 7 rats were grown at a density of 100,000 cells/cm^2 for 7 days on poly-L-lysine coated microtiter plates in the medium containing 40 mM KCl, then the medium was substituted to a 5 mM KCl containing medium supplemented with various concentrations of FGLd.
For the experiments cerebellar tissue was dissected in modified Krebs-Ringer solution kept on ice, and treated as described for the hippocampal neurons above. All cell cultures were incubated at 37° C. in a humidified atmosphere containing 5% CO2.
Primary cultures of CGN were plated at a density of 100,000 cells/cm^2 on poly-L-lysine coated 8-well permanox slides in Neurobasal-A medium (Gibco, BRL) supplemented with 2% (v/v) B27, 0.5% (v/v) glutamax, 100 U/ml penicillin, 100 μg/ml streptomycin and KCl, making the final concentration of KCl in the medium 40 mM. 24 hours after plating, cytosine-β-D-arabinofuranoside (Ara-C; Sigma-Aldrich) was added to a final concentration of 10 μM to avoid proliferation of glial cells, after which the neurons were allowed to differentiate for further six days at 37° C. Apoptotic cell death was induced by washing twice and changing the medium to Basal Medium Eagle (BME; Gibco BRL) supplemented with 1% (v/v) glutamine, 100 U/ml penicillin and 100 μg/ml streptomycin, 3.5 g D-glucose/l and 1% (v/v) sodium pyruvate (Gibco BRL) together with various concentrations of peptide. Thereby the concentration of potassium in the cultures was reduced to 5 mM KCl. Two days after induction of apoptosis, the cells were fixed with 4% formaldehyde and stained with Hoechst 33258 as described for the survival assay employing hippocampal neurons.

dopaminergic neurons [5] = experiment: Neurite outgrowth, dopaminergic neurons; format: cell-based, rat; details: DN E14, 72 h
Experimental: as §1
After 72 hours of incubation, the neurons were fixed with 4% (v/v) formaldehyde and immunostained using a primary mouse monoclonal antibody against tyrosine hydroxylase and secondary biotinylated sheep anti-mouse antibodies followed by incubation with peroxidase conjugated streptavidin. 98 images for each experimental condition in each individual experiment were automatically recorded using a computerised microscope workstation described by Walmod et al. (2002) Toxicol Appl Pharmacol. 181:1-15. Briefly, the workstation consisted of an Eclipse TE 300 inverted microscope (Nikon, Tokyo, Japan) equipped with a motorised, movable microscope stage (LUDL Electronic Production Ltd, Hawthorne, N.Y., USA), a 10× objective and a 1100 analogue b/w CCD video camera (DFA, Denmark). A software package Prima developed at the Protein Laboratory (Copenhagen University, Denmark) was used to make a stereologically based determination of neurite length according to Rønn et al., (2000) J Neurosci Methods. 100:25-32).

hippocampal neurons [6] = experiment: Survival of hippocampal neurons exposed to Aβ25-35; format: cell-based, rat; details: 50 ng/ml; 20 μM Aβ25-35
Experimental: For the experiments dissociated hippocampal neurons were isolated from Wistar rat embryos at embryonic day 19 or newborn rats as described by Rønn et al. (1999) Nat. Biotechnol. 17:1000-5.
Briefly, hippocampus was isolated from the brain in ice cold modified Krebs Ringer solution, cleared of blood vessels, roughly homogenised by chopping and then trypsinised. The dissociated cells were washed in the presence of DNAse 1 and soybean trypsin inhibitor.
For the assay neurons were plated at a density of 40,000 cells/cm^2 on 8-well permanox slides coated with 10 μg/ml poly-L-lysine in Neurobasal medium. 15 minutes after plating, Aβ25-35 was added to a final concentration of 20 μM. The Aβ25-35 had prior to plating been dissolved in sterile deionized water to a concentration of 3 mM and incubated at 37° C. for four days according to Pigino et al. (2001) J. Neurosci. 21:834-42. This treatment induces fibrillation of the Aβ-peptide fragment, thereby increasing its neurotoxic activity. The neurons were incubated with Neurobasal medium containing the FGL peptide for 70 hours, fixed with 4% (v/v) formaldehyde, and stained with Hoechst 33258 for 25 minutes as described by Kruman et al. (1997). Images of 1000-1500 neurons were randomly recorded for each group in each experiment using computer assisted fluorescence microscopy as described for the hippocampal neurite outgrowth assay. Nuclei from dead and live neurons were counted using the software package Prima developed at the Protein Laborator, Copenhagen University, and the fraction of live neurons relative to the total number of neurons was estimated.

dopaminergic neurons [7] = experiment: Survival of dopaminergic neurons exposed to 6-OHDA; format: cell-based, rat; details: 10 ng/ml; 6-OHDA-treated control cells set to 100%
Experimental: Dopaminergic neurons (DN) (a and b) from day 15 rat embryos grown at a density of 150,000 cells/cm^2 for six days without or with various concentrations of peptide on 24-well cell culture plates coated with poly-D-lysine were exposed to 100 μM 6-OHDA for two hours. Medium was changed and various concentrations of FGLd were added. The neurons were grown for another 24 hours before the cultures they were fixed and immunostained for tyrosine hydroxylase.
Dopaminergic neurons were prepared from Wistar rat embryos at embryonic day 15 (Charles River, Sulzfeld, Germany or Møllegaard, Denmark). A pregnant rat was sacrificed and the uterus was taken out and kept on ice in Hank's balanced salt solution (HBSS; Gibco, BRL). The ventral part of the mesencephalon was dissected from the embryonic brains, homogenised on ice in Gey's balanced salt solution (GBSS; Gibco, BRL) supplemented with 5 g glucose/l (Sigma-Aldrich) and thereafter trypsinised. The dissociated cells were washed in the presence of DNAse 1 and soybean trypsin inhibitor (Sigma-Aldrich).
For the survival assay isolated neurons were seeded at a density of 150,000 cells/cm^2 in 24-well cell culture plates coated with poly-D-lysine as described above. The neurons were left to differentiate for six days without or with various concentrations of the FGL peptide, after which 6-OHDA was added at a concentration of 100 μM for two hours. A stock solution was prepared by dissolving 6-OHDA to a concentration of 10 mM in 0.1% (w/v) sodium metabisulfite in order to prevent oxidation. After two hours with 6-OHDA, the medium was changed to Neurobasal medium with supplements and peptide, and the cell cultures were further incubated for 24 hours, fixed and immunostained for tyrosine hydroxylase. 98 images for each experimental condition in each individual experiment were automatically recorded as described for the dopaminergic neurite outgrowth assay below.

## 11-amino acids fragment of the sequence set forth in SEQ ID NO: 5: SEQ ID NO: 5 (VAENSRGKNVAKG) with two amino acids truncated from the C-terminus; from axonal-associated cell adhesion molecule (Axonal-associated cell adhesion molecule [NCBI: NP_446331]: FGFR binding motif)
Hippocampal neurons [1]
  maximal effect, increase in neurite length of rat hippocampal neurons: 500%

## O=c1cc(N2CCOCC2)oc2c(-c3ccccc3)cccc12 [LY294002]
[2]; 3.5 μM inhibitor
  FGLd-induced neurite outgrowth (% of FGLd-treated control) at 3.5 µM: 90%
[2]; 10 μM inhibitor
  FGLd-induced neurite outgrowth (% of FGLd-treated control) at 10 µM: ~50%

## EVYVVAENMGKSKA [FGLc]
[3]
  PI staining (cell damage) after 10 minutes of OGD: did not affect cell damage induced by OGD

## EVYVVAENQQGKSKA (NCAM Fn III, 2 [Swiss-Prot: P13591]: FGFR binding motif) [FGLm, monomeric FGL peptide derived from NCAM]
[4]; CGN (PND 3-4), 250 μg/mL
  Neuronal Survival (% of Control): 125%* % of Control
[4]; CGN (PND 7-8), 10 μg/mL
  Neuronal Survival (% of Control): 110%* % of Control
[4]; CGN (PND 7-8), 50 μg/mL
  Neuronal Survival (% of Control): 119%* % of Control
[4]; CGN (PND 7-8), 250 μg/mL
  Neuronal Survival (% of Control): 142%* % of Control
Dopaminergic neurons [5]; 10 μg/mL
  Effect on Neurite Length (Percent Increase vs. Control): 15%
Dopaminergic neurons [5]; 50 μg/mL
  Effect on Neurite Length (Percent Increase vs. Control): 23%
Dopaminergic neurons [5]; 250 μg/mL
  Effect on Neurite Length (Percent Increase vs. Control): 28%

## IGF-1: insulin-like growth factor 1
[4]; 50 ng/ml, 5 mM KCl
  rescue of CGN from low KCl-induced cell death: could be rescued

B1: BDNF: brain derived neurotrophic factor (protein, UniProt P23560 19-247, looked up)
Neurotrophic factor BDNF …: APMKEANIRGQGGLAYPGVRTHGTLESVNGPKAGSRGLTSLADTFEHVIEELLDEDQKVRPNEENNKDADLYTSRVMLSSQVPLEPPLLFLLEEYKNYLDAANMSMRVRRHSDPARRGELSVCDSISEWVTAADKKTAVDMSGGTVTVLEKVPVSKGQLKQYFYETKCNPMGYTKEGCRGIDKRHWNSQCRTTQSYVRALTMDSKKRIGWRFIRIDTSCVCTLTIKRGR
Hippocampal neurons [6]
  rescue of hippocampal neurons from Aβ25-35-induced cell loss: could in part be rescued

B2: GDNF: glia derived neurotrophic factor (protein, UniProt P39905 78-211, looked up)
Glial cell line-derived …: SPDKQMAVLPRRERNRQAAAANPENSRGKGRRGQRGKNRGCVLTAIHLNVTDLGLGYETKEELIFRYCSGSCDAAETTYDKILKNLSRNRRLVSDKVGQACCRPIAFDDDLSFLDDNLVYHILRKHSAKRCGCI
Dopaminergic neurons [7]
  survival of dopaminergic neurons treated with 6-OHDA: 150%
